{
  "source": "ChEMBL document CHEMBL1201862",
  "about": "“PubChem BioAssay data set” (2004)",
  "key": {"Beta-galactosidase": {"biological_target": "Beta-galactosidase (Escherichia coli, UniProt Q8VNN2)", "sequence (Q8VNN2 whole entry)": "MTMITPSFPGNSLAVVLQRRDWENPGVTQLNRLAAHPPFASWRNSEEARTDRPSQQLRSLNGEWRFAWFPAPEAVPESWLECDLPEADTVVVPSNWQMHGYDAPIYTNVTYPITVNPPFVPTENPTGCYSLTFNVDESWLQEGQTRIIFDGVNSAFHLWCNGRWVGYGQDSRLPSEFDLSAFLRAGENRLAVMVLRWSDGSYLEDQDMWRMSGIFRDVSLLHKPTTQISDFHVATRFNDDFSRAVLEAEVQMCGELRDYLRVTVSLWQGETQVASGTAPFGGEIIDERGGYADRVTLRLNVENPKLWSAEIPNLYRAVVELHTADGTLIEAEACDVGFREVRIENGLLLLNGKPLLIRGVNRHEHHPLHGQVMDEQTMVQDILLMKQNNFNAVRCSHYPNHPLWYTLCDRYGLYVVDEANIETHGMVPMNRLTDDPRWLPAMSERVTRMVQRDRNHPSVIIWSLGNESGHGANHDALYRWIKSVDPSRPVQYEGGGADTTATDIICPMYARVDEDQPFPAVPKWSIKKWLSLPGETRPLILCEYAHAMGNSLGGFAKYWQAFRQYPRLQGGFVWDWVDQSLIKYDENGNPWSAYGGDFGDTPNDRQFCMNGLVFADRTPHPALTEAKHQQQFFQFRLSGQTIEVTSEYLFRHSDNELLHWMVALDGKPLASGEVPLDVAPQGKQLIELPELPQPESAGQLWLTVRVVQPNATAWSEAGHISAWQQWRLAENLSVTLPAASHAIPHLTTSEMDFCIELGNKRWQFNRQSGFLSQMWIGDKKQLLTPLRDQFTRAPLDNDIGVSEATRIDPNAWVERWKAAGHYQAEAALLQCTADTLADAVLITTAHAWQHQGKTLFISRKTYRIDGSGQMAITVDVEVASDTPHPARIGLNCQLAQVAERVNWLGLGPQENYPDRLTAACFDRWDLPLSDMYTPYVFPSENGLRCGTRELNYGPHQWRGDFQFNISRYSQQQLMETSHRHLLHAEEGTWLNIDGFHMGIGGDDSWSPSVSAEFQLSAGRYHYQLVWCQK", "experiment": "Dose response counterscreen for EBI2 assay utilizing the enzyme, b-galactosidase.", "assay_type": "functional"}, "[1]": {"experiment": "viability of uninfected HEp-2 cells – cell-based, HTS, cytotoxicity control for RSV inhibitor project, dose response (AID 2410)", "assay_type": "functional", "settings": "human respiratory syncytial virus"}, "Melanocortin receptor 4": {"biological_target": "Melanocortin receptor 4 (Homo sapiens, UniProt P32245)", "sequence (P32245 whole entry)": "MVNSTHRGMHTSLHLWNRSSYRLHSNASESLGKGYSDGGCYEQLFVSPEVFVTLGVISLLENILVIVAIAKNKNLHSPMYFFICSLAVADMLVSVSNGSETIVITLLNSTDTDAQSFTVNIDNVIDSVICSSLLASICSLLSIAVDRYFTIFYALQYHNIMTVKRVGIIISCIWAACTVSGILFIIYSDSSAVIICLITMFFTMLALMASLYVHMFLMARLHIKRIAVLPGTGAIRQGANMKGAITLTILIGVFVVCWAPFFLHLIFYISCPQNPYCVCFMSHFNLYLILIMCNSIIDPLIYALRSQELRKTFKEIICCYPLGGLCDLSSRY", "assay_type": "functional, cell-based"}, "[2]": {"biological_target": "T1, High affinity choline transporter 1 (Homo sapiens, UniProt Q9GZV3)", "T1 sequence (Q9GZV3 whole entry)": "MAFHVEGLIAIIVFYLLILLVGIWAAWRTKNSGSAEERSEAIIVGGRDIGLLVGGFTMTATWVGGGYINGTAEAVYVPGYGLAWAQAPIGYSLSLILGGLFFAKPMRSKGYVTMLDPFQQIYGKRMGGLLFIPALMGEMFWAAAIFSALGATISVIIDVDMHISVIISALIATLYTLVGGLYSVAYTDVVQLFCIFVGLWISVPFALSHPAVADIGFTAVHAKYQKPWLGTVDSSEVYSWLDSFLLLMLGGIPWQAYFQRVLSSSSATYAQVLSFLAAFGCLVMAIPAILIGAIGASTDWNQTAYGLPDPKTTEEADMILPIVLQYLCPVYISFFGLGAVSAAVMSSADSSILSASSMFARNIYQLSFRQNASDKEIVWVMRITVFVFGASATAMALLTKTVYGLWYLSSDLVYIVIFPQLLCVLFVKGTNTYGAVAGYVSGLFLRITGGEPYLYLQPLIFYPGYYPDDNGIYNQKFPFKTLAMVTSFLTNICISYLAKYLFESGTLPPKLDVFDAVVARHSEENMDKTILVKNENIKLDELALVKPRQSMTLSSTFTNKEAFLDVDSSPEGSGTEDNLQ", "experiment": "human choline transporter blockers, potency – cell-based, 5-point CRC, membrane potential dye, dose response (AID 504840)", "assay_type": "functional"}, "[3]": {"experiment": "Trypanosoma cruzi growth suppression in host cells – NIH3T3 host cells, beta-gal luminescence, confirmation (AID 2044);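 note: intracellular parasites grown in NIH/3T3 mouse fibroblasts as host cells; luminescent beta-galactosidase reporter signal from transgenic T. cruzi replicating inside host cells; inhibitors lower the luminescence signal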", "assay_type": "functional, cell-based"}, "[4]": {"experiment": "NIH3T3 cell viability loss – ATP luminescence, mouse fibroblasts, counter-screen, dose response (AID 2010);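 note: cells exposed to compound for about 90 hours before reading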", "assay_type": "functional, cell-based"}, "[5]": {"experiment": "loss of viability in HepG2 cells – cell-based, CellTiter-Glo, cherry-picked, cytotoxicity control for Shn3 inhibitor project, dose response (AID 624134)", "assay_type": "functional"}, "Mu-type opioid receptor": {"biological_target": "Mu-type opioid receptor (Homo sapiens, UniProt P35372)", "sequence (P35372 whole entry)": "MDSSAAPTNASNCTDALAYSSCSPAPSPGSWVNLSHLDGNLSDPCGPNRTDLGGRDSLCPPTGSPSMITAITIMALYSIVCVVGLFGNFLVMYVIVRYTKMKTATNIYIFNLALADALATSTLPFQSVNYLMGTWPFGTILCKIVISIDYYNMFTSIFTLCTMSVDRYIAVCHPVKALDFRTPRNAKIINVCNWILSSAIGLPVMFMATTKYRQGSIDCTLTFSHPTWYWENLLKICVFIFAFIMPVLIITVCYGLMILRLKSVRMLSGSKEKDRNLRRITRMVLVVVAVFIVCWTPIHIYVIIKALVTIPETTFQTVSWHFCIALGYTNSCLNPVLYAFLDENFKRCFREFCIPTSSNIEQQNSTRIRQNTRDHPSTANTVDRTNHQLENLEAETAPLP", "experiment": "(§1) Counterscreen for agonists of heterodimerization of the mu 1 (OPRM1) and delta 1 (OPRD1) opioid receptors: Luminescence-based cell-based high throughput dose response assay to identify agonists of OPRM1 homodimerization.", "assay_type": "functional"}, "[6]": {"biological_target": "5-hydroxytryptamine receptor 5A (Homo sapiens, UniProt P47898)", "sequence (P47898 whole entry)": "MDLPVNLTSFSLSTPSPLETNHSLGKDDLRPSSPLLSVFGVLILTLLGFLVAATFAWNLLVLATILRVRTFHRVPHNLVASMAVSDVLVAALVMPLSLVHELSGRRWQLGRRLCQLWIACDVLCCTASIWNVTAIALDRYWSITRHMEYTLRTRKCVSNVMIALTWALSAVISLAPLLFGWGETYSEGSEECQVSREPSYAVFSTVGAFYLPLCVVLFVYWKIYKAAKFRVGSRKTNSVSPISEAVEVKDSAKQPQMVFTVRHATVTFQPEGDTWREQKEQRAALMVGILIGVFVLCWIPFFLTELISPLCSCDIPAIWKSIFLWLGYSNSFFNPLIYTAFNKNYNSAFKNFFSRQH", "experiment": "Counterscreen for agonists of OPRM1-OPRD1 heterodimerization: luminescence-based cell-based high throughput dose response assay to identify agonists of 5-hydroxytryptamine (serotonin) 5A receptor (HTR5A). [Related pubchem assays (depositor defined):AID504326, AID504355, AID504692, AID504904, AID504905]", "assay_type": "functional"}, "[7]": {"experiment": "viability of PTEN-deleted HCT116 cells – cell-based, HCT116 PTEN knockout, dose response (AID 1047)", "assay_type": "functional"}, "[8]": {"experiment": "non-specific 3'UTR reporter inhibition in Clone20-Shn3RL – cell-based, Renilla luciferase, cherry-picked, counter-screen for Shn3 inhibitor project, dose response (AID 624133)", "assay_type": "functional"}, "[9]": {"experiment": "reduction of Shn3 3'UTR-driven luciferase in osteoblasts – cell-based, Clone20 osteoblasts, firefly luciferase, cherry-picked, dose response (AID 624132)", "assay_type": "functional"}, "[10]": {"biological_target": "Delta-type opioid receptor (Homo sapiens, UniProt P41143)", "sequence (P41143 whole entry)": "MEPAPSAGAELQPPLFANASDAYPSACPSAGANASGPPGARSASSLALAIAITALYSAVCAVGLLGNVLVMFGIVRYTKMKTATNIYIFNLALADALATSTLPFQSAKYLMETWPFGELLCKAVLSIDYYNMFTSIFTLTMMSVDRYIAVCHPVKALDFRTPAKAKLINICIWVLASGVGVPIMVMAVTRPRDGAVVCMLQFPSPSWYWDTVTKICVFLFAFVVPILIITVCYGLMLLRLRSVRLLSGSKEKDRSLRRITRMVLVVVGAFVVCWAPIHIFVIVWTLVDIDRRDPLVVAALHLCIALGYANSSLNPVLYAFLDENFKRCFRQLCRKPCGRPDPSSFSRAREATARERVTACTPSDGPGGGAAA", "experiment": "as §1, with “of OPRD1” for “of OPRM1”, “homodimerization. [Related pubchem assays (depositor defined):AID504326, AID504355, AID504692, AID504904, AID504905]” for “homodimerization.”", "assay_type": "functional"}, "[11]": {"experiment": "viability of HCT116 lacking mutant beta-catenin – cell-based, human colon tumor, dose response (AID 1045)", "assay_type": "functional"}, "[12]": {"biological_target": "T1, High affinity choline transporter 1", "experiment": "human choline transporter blockers, potency – cell-based, 10-point CRC, membrane potential dye, dose response (AID 588401)", "assay_type": "functional"}, "Beta-lactamase [13]": {"biological_target": "Beta-lactamase (Salmonella choleraesuis (strain SC-B67), UniProt Q5J463)", "experiment": "Epi-absorbance-based counterscreen for selective VIM-2 inhibitors: dose response biochemical high throughput screening assay to identify inhibitors of TEM-1 serine-beta-lactamase."}, "Beta-lactamase [14]": {"biological_target": "T2, Beta-lactamase (Pseudomonas aeruginosa, UniProt Q79MP6)", "T2 sequence (Q79MP6 whole entry)": "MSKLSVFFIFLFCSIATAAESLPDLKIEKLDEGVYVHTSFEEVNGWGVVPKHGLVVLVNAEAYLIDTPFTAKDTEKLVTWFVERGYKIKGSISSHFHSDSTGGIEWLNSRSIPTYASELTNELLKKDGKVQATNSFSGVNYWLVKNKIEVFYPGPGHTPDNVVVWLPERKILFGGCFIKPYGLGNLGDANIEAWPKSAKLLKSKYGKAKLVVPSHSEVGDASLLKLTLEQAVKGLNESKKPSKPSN", "experiment": "[…] counterscreen for selective VIM-2 inhibitors: dose response biochemical high throughput screening assay to identify inhibitors of IMP-1 metallo-beta-lactamase."}, "Beta-lactamase [15]": {"biological_target": "T2, Beta-lactamase", "experiment": "inhibition of IMP-1 beta-lactamase activity – biochemical, epi-absorbance, selectivity assay for VIM-2 inhibitor project, dose response (AID 1920)"}, "[16]": {"biological_target": "Long-chain-fatty-acid--AMP ligase FadD28 (Mycobacterium tuberculosis, UniProt P9WQ59)", "sequence (P9WQ59 whole entry)": "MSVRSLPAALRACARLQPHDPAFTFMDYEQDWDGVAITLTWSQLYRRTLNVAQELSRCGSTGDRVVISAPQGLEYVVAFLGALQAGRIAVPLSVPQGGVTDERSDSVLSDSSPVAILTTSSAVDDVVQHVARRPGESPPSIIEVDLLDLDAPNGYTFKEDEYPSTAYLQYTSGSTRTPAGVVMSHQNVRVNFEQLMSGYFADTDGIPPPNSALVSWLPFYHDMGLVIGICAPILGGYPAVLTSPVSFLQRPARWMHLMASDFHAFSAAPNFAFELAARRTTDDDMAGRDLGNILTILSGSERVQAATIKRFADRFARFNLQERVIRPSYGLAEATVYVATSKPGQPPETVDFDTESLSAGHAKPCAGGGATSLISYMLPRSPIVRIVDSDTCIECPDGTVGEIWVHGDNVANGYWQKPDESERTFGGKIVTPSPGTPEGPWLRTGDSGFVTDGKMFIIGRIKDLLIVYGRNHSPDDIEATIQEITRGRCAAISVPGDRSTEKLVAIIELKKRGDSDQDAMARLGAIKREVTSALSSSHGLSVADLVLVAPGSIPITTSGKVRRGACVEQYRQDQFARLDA", "experiment": "Fluorescence polarization aasay to screen for inhibitors that compete for the binding of FadD28 to a bisubstrate Measured in Biochemical System Using Plate Reader - 2147-01_Inhibitor_Dose_CherryPick_Activity.", "assay_type": "functional, Mycobacterium tuberculosis H37Rv"}, "[17]": {"biological_target": "Melanin-concentrating hormone receptor 1 (Homo sapiens, UniProt Q99705)", "sequence (Q99705 whole entry)": "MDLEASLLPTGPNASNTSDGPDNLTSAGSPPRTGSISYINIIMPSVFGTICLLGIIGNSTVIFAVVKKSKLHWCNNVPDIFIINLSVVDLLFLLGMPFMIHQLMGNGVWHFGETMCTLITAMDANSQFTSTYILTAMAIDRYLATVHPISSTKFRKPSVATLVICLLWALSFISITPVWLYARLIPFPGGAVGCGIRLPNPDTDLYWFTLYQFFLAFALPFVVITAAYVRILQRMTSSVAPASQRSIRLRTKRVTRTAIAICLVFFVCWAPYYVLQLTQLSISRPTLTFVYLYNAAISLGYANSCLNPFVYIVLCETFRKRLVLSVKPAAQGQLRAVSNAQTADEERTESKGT", "experiment": "Late-stage fluorescence-based counterscreen for antagonists of the G-protein coupled receptor 7 (GPR7): cell-based dose response assay to identify antagonists of the melanin-concentrating hormone receptor 1 (MCHR1) Set 6.", "assay_type": "functional"}, "[18]": {"biological_target": "T3, Neuropeptides B/W receptor type 1 (Homo sapiens, UniProt P48145)", "T3 sequence (P48145 whole entry)": "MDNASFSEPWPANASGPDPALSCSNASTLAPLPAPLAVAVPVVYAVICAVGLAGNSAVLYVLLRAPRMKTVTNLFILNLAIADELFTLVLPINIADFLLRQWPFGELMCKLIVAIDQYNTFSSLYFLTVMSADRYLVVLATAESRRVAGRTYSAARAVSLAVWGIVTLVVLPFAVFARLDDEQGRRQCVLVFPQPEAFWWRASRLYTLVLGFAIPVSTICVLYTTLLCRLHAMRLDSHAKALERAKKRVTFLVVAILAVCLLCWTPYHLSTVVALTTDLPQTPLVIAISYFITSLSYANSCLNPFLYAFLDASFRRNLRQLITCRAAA", "experiment": "human NPBW1 receptor blockade, IC50 – cell-based, fluorescence, dose response, set 6, late-stage follow-up (AID 588583)", "assay_type": "functional"}, "[19]": {"biological_target": "T4, Ubiquitin-conjugating enzyme E2 N (Homo sapiens, UniProt P61088)", "T4 sequence (P61088 whole entry)": "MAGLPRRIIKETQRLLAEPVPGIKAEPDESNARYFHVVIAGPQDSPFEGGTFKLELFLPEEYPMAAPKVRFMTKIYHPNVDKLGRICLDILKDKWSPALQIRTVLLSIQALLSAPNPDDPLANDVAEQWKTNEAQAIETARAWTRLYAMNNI", "assay_type": "functional"}, "Bcl-2-related protein A1": {"biological_target": "T5, Bcl-2-related protein A1 (Mus musculus, UniProt Q07440)", "T5 sequence (Q07440 whole entry)": "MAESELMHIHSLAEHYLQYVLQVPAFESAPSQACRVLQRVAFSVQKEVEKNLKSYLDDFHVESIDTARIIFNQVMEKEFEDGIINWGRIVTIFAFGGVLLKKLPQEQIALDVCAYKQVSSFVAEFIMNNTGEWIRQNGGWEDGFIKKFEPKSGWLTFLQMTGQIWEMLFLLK", "assay_type": "functional"}, "[20]": {"biological_target": "T4, Ubiquitin-conjugating enzyme E2 N", "assay_type": "functional", "remark": "listed apart in the source"}, "[21]": {"biological_target": "Arf-GAP with SH3 domain, ANK repeat and PH domain-containing protein 1 (Homo sapiens, UniProt Q9ULH1)", "sequence (Q9ULH1 whole entry, the tested form may be a part)": "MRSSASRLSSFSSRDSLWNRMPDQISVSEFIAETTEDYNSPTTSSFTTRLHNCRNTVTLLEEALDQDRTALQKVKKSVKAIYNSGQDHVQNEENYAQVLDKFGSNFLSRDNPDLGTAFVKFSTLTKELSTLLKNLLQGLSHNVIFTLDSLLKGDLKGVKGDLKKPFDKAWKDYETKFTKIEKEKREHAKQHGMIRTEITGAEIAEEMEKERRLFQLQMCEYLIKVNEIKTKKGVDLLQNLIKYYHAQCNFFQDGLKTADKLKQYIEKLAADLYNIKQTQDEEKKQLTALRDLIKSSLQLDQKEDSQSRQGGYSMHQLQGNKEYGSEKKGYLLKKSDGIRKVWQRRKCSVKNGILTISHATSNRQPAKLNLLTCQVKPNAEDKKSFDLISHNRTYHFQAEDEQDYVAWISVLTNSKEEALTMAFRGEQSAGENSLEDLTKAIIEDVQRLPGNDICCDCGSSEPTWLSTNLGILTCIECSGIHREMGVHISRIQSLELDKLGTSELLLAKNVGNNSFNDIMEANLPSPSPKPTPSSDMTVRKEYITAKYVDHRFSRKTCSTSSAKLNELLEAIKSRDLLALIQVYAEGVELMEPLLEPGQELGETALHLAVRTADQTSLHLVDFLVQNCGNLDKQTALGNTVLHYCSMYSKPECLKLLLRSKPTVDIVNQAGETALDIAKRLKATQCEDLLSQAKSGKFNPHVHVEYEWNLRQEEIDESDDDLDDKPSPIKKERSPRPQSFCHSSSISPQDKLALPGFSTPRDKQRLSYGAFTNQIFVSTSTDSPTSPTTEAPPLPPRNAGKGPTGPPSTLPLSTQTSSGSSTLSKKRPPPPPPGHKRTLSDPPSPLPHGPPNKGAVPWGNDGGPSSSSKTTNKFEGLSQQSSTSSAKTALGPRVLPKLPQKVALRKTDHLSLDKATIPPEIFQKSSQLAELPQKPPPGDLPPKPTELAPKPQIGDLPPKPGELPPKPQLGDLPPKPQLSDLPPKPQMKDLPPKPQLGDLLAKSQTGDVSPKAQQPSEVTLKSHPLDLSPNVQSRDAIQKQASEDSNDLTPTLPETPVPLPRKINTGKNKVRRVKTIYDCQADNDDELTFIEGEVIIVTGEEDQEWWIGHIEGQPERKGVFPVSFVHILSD", "assay_type": "functional"}},
  "note": "Active and inactive are the calls of the source.",
  "data": [
    {"molecule": "COc1ccc(-c2cc3nc(-c4ccccc4)cc(N4CCC(O)CC4)n3n2)cc1", "values": [
      {"measurement": "IC50", "setting": "Beta-galactosidase", "result": "> 80 µM (inactive)"},
      {"measurement": "CC50", "setting": "[1]", "result": "17 µM (active)"},
      {"measurement": "IC50", "setting": "cells", "result": "34.9 µM (active)"}
    ]},
    {"molecule": "N#Cc1sc2nc(-c3cccs3)cc(-c3ccc(F)cc3)c2c1N", "values": [
      {"measurement": "EC50", "setting": "Melanocortin receptor 4", "result": "> 89.2 µM (inactive)"}
    ]},
    {"molecule": "Cc1ccc(Cn2c(=N)n(CC(O)COc3ccccc3)c3ccccc32)cc1", "note": "(stereo unspecified)", "values": [
      {"measurement": "IC50", "setting": "[2]", "result": "5.55 µM (active)"},
      {"measurement": "EC50", "setting": "[3]", "result": "4.91 µM (active)"},
      {"measurement": "EC50", "setting": "[4]", "result": "9.05 µM (active)"},
      {"measurement": "AC50", "setting": "[5]", "result": "21.4 µM (active)"},
      {"measurement": "EC50", "setting": "Mu-type opioid receptor", "result": "35.1 µM (inactive)"},
      {"measurement": "EC50", "setting": "[6]", "result": "> 92.5 µM (inactive)"},
      {"measurement": "EC50", "setting": "[7]", "result": "5.49 µM (active)"},
      {"measurement": "AC50", "setting": "[8]", "result": "3.9 µM (active)"},
      {"measurement": "AC50", "setting": "[9]", "result": "2.46 µM (active)"},
      {"measurement": "EC50", "setting": "[10]", "result": "> 92.5 µM (inactive)"},
      {"measurement": "EC50", "setting": "[11]", "result": "5.07 µM (active)"},
      {"measurement": "IC50", "setting": "[12]", "result": "7.08 µM (active)"}
    ]},
    {"molecule": "Cc1cccc(-n2c(C)nnc2S)c1C", "values": [
      {"measurement": "IC50", "setting": "Beta-lactamase [13]", "result": "> 59.6 µM (inactive)"},
      {"measurement": "IC50", "setting": "Beta-lactamase [14]", "result": "> 59.6 µM (inactive)"},
      {"measurement": "IC50", "setting": "Beta-lactamase [15]", "result": "> 59.6 µM (inactive)"}
    ]},
    {"molecule": "CC(C)(C)c1ccc(NC(=O)Nc2ccc(OCC(=O)N3CCOCC3)cc2)cc1", "values": [
      {"measurement": "AC50", "setting": "[16]", "result": "41.4 µM (active)"}
    ]},
    {"molecule": "N#CC(c1c(F)c(F)c(F)c(F)c1F)c1c(Cl)cnn(Cc2cccc3ccccc23)c1=O", "note": "(stereo unspecified)", "values": [
      {"measurement": "IC50", "setting": "[17]", "result": "1.56 µM (active)"},
      {"measurement": "IC50", "setting": "[18]", "result": "1.56 µM (active)"}
    ]},
    {"molecule": "COCCN=C(S)N=Nc1c(O)[nH]c2ccc([N+](=O)[O-])cc12", "values": [
      {"measurement": "IC50", "setting": "[19]", "result": "1.52 µM (active)"},
      {"measurement": "IC50", "setting": "Bcl-2-related protein A1", "result": "> 20 µM (inactive)"},
      {"measurement": "IC50", "setting": "[20]", "result": "6.15 µM (active)"},
      {"measurement": "IC50", "setting": "[21]", "result": "26.8 µM (inactive)"}
    ]}
  ]
}
